The values that follow come from patent publication US20230135894A1, “MK2 DEGRADERS AND USES THEREOF” (Kymera Therapeutics, Inc., priority 2021, published 2023).

The target in experiment [1] is T1, MK2 (Homo sapiens, UniProt P49137). The experiment is described as follows: MK2 degradation in human THP-1 monocytic cells (MSD, 24 h). The class given is cell-based. The arrangement: endogenous in cells. Particulars: for Dmax: THP-1, THP-1 cells; for DC50: THP-1 cells, read-out: MK2 MSD THP-1 degradation 24 h GMean External Abs DC50. How it is done: MK2 Degradation in Human THP-1 Monoctyic Cells
(§1) The human monocytic cancer cell line THP-1 (ATCC (TIB-202)) was cultured in 96 well plates (Corning 3894) at a density of 200,000 cells per well in 100 microlitres in complete growth medium of RPMI 1640 (Gibco) pus 10% fetal Bovine Serum (Corning) and Penicillin/Streptomycin (SolarBio) at 37 degrees Celsius and 5% CO2. A serial dilution of each compound (usually 3 to 5 fold serial dilutions up to 10 separate concentration points) was added to individual wells from a 10 millimolar stock solution, at a background concentration of 0.1% DMSO and the cells were shaken at 600 rpm for 5 minutes and then were cultured for 24 hours at 37 degrees Celsius and 5% carbon dioxide. Separately, a custom MSD (MesoScaleDiscovery, L15XA-3) plate for detection of human MK2 was prepared by coating the plate with the commercial AbCam ab247272 reagent in 1×Phosphate Buffered Saline at 40 microlitres per well and incubated at 4 degrees Celsius overnight. The next day, the MSD plate was washed with 150 microlitres of Tween buffered saline, blocked with MSD blocking buffer (3% Blocker A from MSD), and washed again.
(§2) The cell plate was centrifuged at 3,200 g for 5 minutes and the supernatant was discarded and 100 microlitres of RIPA lysis buffer (containing proteinase inhibitors, Boston BioProducts BP-115D) was added and the plate was sealed and shaken on ice for 20 minutes. The plate was centrifuged as before and 70 microlitres of sample lysate was added to the MSD plates and they were shaken at room temperature for 1 hour at 600 rpm. The MSD plate was washed 3 times as before and then the primary MK2 detection antibody (Santa Cruz sc-100393) was added at a final concentration of 1 microgram per ml at 25 microlitres per well and shaken at room temperature for 1 hour at 600 rpm.
(§3) After 3 more washes, the secondary detection antibody (SULFO-Tag anti rabbit antibody R32AB-5) was added at a final concentration of 1 microgram per ml at 25 microlitres per well and shaken at room temperature for 1 hour at 600 rpm. After 3 more washes, the 1×MSD (diluted from 5× concentrate with water) reading buffer was added at 150 microlitres per well and read on the MSD instrument Meso Sector S 600.
(§4) The inhibition/degradation curves and DC50 values were plotted and calculated using XL Fit (version v5.3.1.3) using equation 201 and a 4 parameter logistic model whereby fit=(A+((B−A)/(1+((x/C)D))) where A is the Bottom and B is the Top and C is the IC50 and D is the slope and high C is the signal for the DMSO treated cells and Low C is the signal is the signal for the lysis buffer.

The target of experiment [2] is T1, MK2. In words: MK2 degradation in human SW1353 cells (MSD, 24 h). The class given is cell-based. Further details: endogenous in cells; host or cells: SW-1353 (ATCC HTB-94); key to MK2 MSD SW1353 degradation 24 h GMean External Abs DC50: A (<0.001 μM); B (0.001-0.01 μM); C (0.01-0.1 μM); D (>0.1 μM); —: “-”=not tested or inactive; key to MK2 MSD SW 1353 24 h Dmax %: —: “-”=not tested or inactive. Conditions: for Dmax: read-out: MK2 MSD SW 1353 24 h Dmax %; for DC50: read-out: MK2 MSD SW1353 degradation 24 h GMean External Abs DC50. How it is done:
MK2 Degradation in Human SW1353 Cells
as §1, with “chondrocyte” for “monocytic”, “SW-1353 (ATCC(HTB-94))” for “THP-1 (ATCC (TIB-202))”, “Leibovitz's L-15 Medium” for “RPMI 1640”, “Celsius.” for “Celsius and 5% CO2.”, “Celsius.” for “Celsius and 5% carbon dioxide.”
as §2, §3, §4

Each structure is given as a SMILES string.

T1 sequence (P49137 whole entry): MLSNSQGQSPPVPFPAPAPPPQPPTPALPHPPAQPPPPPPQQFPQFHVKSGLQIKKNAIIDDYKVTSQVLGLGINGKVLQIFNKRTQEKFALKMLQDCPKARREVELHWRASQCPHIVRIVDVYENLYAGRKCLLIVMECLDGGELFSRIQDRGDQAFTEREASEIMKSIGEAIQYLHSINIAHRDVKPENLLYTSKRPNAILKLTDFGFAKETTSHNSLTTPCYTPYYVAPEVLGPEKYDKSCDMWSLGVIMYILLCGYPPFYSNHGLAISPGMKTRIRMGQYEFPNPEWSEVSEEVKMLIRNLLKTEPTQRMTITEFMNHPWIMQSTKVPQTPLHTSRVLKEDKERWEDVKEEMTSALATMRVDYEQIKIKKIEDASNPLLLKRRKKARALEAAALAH

Regarding `C[C@@H]1Cc2oc(-c3ccnc(-c4ccc(N5CCN(CC6CCN(c7ccc8c(c7)n(C)c(=O)n8C7CCC(=O)NC7=O)CC6)CC5)cc4)c3)cc2C(=O)N1` (stereo partly shown) [Compound I-208], in experiment [1], the Dmax is under 50% and the DC50 is over 100 nM. Moreover, in experiment [2], the Dmax was under 50% and the DC50 is over 100 nM.
Consider `C[C@@H]1Cc2[nH]c(-c3ccnc(-c4ccc(N5CCN(CC6CCN(c7cccc8c7n(C)c(=O)n8C7CCC(=O)NC7=O)CC6)CC5)cc4)c3)cc2C(=O)N1` (stereo partly shown) [Compound I-290], for which the Dmax in experiment [1] and in experiment [2] was over 75% each time. Moreover, the DC50 was under 1 nM in experiment [1] and 1 to 10 nM in experiment [2].
On to `C[C@@H]1CNc2c(sc3ccc4nc(-c5ccc(N6CCN(CCCc7ccc8c(c7)n(C)c(=O)n8C7CCC(=O)NC7=O)CC6)cc5F)ccc4c23)C(=O)N1` (stereo partly shown) [Compound I-252], for which, in experiment [1], the Dmax was over 75% and the DC50 is under 1 nM. In experiment [2], the Dmax was over 75% and the DC50 was under 1 nM.
`C[C@@H]1CNc2c(sc3ccc4nc(-c5ccc(N6CCN(CC7CCN(c8cccc9c8n(C)c(=O)n9C8CCC(=O)NC8=O)CC7)CC6)nc5)ccc4c23)C(=O)N1` (stereo partly shown) [Compound I-125]: in experiment [1], the Dmax is over 75% and the DC50 is under 1 nM. For the same compound, in experiment [2], the Dmax was over 75% and the DC50 is under 1 nM.
With `C[C@@H]1CNc2c(sc3ccc4nc(-c5ccc(C#CCCNC(=O)CCCCCCCCCc6cccc7c6n(C)c(=O)n7C6CCC(=O)NC6=O)cc5)ccc4c23)C(=O)N1` (stereo partly shown) [Compound I-54], in experiment [1], the DC50 lay within 10 to 100 nM. Moreover, the Dmax in experiment [2] is over 75%.
As to `C[C@@H]1CNc2c(sc3ccc4nc(-c5ccc(N6CCN(CCCCCc7cccc8c7n(C)c(=O)n8C7CCC(=O)NC7=O)CC6)cc5)ccc4c23)C(=O)N1` (stereo partly shown) [Compound I-171], in experiment [1], the Dmax lay in the range of 50 to 75% and the DC50 is 1 to 10 nM. In experiment [2], the Dmax was over 75% and the DC50 fell in the range of 1 to 10 nM.
Turning to `C[C@@H]1CNc2c(sc3ccc4nc(-c5cncc(C6CCN(CCCCCCCCc7cccc8c7n(C)c(=O)n8C7CCC(=O)NC7=O)CC6)c5)ccc4c23)C(=O)N1` (stereo partly shown) [Compound I-103], the Dmax in experiment [1] and in experiment [2] was over 75% throughout. Further, the DC50 in experiment [1] was under 1 nM; in experiment [2], 1 to 10 nM.
For the compound `C[C@@H]1CNc2c(sc3ccc4nc(-c5ccc(C6CCN(CC7CCN(c8cccc9c8n(C)c(=O)n9C8CCC(=O)NC8=O)CC7)CC6)nc5)ccc4c23)C(=O)N1` (stereo partly shown) [Compound I-122], in experiment [1], the Dmax is over 75% and the DC50 was under 1 nM. In experiment [2], the Dmax is over 75% and the DC50 is under 1 nM.
Take `COc1cc(-c2ccc3c(ccc4sc5c(c43)NC[C@@H](C)NC5=O)n2)cc(N2CCN(CC3CCN(c4ccc5c(c4)n(C)c(=O)n5C4CCC(=O)NC4=O)CC3)CC2)c1` (stereo partly shown) [Compound I-239]: the Dmax in experiment [1] and in experiment [2] was over 75% throughout. Moreover, the DC50 in experiment [1] and in experiment [2] was under 1 nM throughout.
For `O=C1CCN(c2cncc3c(N4CCC(CN5CCN(c6ccc(-c7cc(-c8cc9c([nH]8)C8(CC8)CNC9=O)ccn7)cc6)CC5)CC4)cccc23)C(=O)N1` [Compound I-211], in experiment [1], the Dmax lay in the range of 50 to 75% and the DC50 is 10 to 100 nM. Further, in experiment [2], the Dmax is over 75% and the DC50 was 10 to 100 nM.
Consider `C[C@@H]1CNc2c(sc3ccc4nc(-c5cccc(C6CCN(CCN7CCC(CCc8cccc9c8n(C)c(=O)n9C8CCC(=O)NC8=O)CC7)CC6)c5)ccc4c23)C(=O)N1` (stereo partly shown) [Compound I-104], for which the Dmax in experiment [1] and in experiment [2] was over 75% in each case. The values for the DC50 in experiment [1] and in experiment [2] were 1 to 10 nM and 10 to 100 nM, respectively.
Turning to `C[C@@H]1CNc2c(sc3ccc4nc(-c5cncc(N6CCN(CC7CCN(c8ccc9c(c8)n(C)c(=O)n9C8CCC(=O)NC8=O)CC7)CC6)c5)ccc4c23)C(=O)N1` (stereo partly shown) [Compound I-161], the Dmax in experiment [1] and in experiment [2] was over 75% throughout. Further, the DC50 in experiment [1] and in experiment [2] was under 1 nM throughout.
With `C[C@@H]1CNc2c(sc3ccc4nc(-c5ccnc(N6CCN(CCCc7ccc8c(c7)n(C)c(=O)n8C7CCC(=O)NC7=O)CC6)c5)ccc4c23)C(=O)N1` (stereo partly shown) [Compound I-275], in experiment [1], the Dmax is over 75% and the DC50 is under 1 nM. In addition, in experiment [2], the Dmax was over 75% and the DC50 is under 1 nM.
For the compound `Cc1cc(N2CCN(CC3CCN(c4ccc5c(c4)n(C)c(=O)n5C4CCC(=O)NC4=O)CC3)CC2)ccc1-c1cc(-c2cc3c([nH]2)CCNC3=O)ccn1` (stereo not shown) [Compound I-229], in experiment [1], the Dmax is under 50% and the DC50 is over 100 nM. In experiment [2], the Dmax was under 50% and the DC50 was over 100 nM.
`Cc1nc(N2CCN(CC3CCN(c4ccc5c(c4)n(C)c(=O)n5C4CCC(=O)NC4=O)CC3)CC2)ccc1-c1ccc2c(ccc3sc4c(c32)NC[C@@H](C)NC4=O)n1` (stereo partly shown) [Compound I-283]: in experiment [1], the Dmax was over 75% and the DC50 is under 1 nM. Besides, in experiment [2], the Dmax is over 75% and the DC50 is under 1 nM.
`Cn1c(=O)n(C2CCC(=O)NC2=O)c2cccc(CCCCN3CC4(CCN(c5ccc6c(c5)Cn5cc(-c7ccc(F)cc7)cc5-c5nccn5-6)C4)C3)c21` (stereo not shown) [Compound I-167]: the Dmax in experiment [1] and in experiment [2] was under 50% throughout. The half-maximal degradation concentration (DC50) in experiment [1] and in experiment [2] was over 100 nM each time.
Take `C[C@@H]1CNc2c(sc3ccc4nc(N5CCN(CC6CCN(c7ccc8c(c7)n(C)c(=O)n8C7CCC(=O)NC7=O)CC6)CC5)ccc4c23)C(=O)N1` (stereo partly shown) [Compound I-265]: the Dmax in experiment [1] and in experiment [2] was over 75% each time. For the same compound, the DC50 in experiment [1] and in experiment [2] was 1 to 10 nM each time.
Turning to `C[C@@H]1CNc2c(sc3ccc4nc(-c5cccc(N6CCC(CN7CCC(c8cccc9c8n(C)c(=O)n9C8CCC(=O)NC8=O)CC7)CC6)c5)ccc4c23)C(=O)N1` (stereo partly shown) [Compound I-96], in experiment [1], the Dmax was over 75% and the DC50 is under 1 nM. Moreover, in experiment [2], the Dmax was over 75% and the DC50 was in the range of 1 to 10 nM.
On to `C[C@@H]1CNc2c(sc3ccc4nc(-c5ccc(N6CCN(CCCCCCCCc7ccc8c(c7)n(C)c(=O)n8C7CCC(=O)NC7=O)CC6)cc5)ccc4c23)C(=O)N1` (stereo partly shown) [Compound I-175], for which the greatest degradation seen (Dmax) in experiment [1] and in experiment [2] was over 75% throughout. In addition, the DC50 in experiment [1] and in experiment [2] was 1 to 10 nM each time.
Turning to `Cn1c(=O)n(C2CCC(=O)NC2=O)c2ccc(N3CCC(CN4CCN(c5ccc(-c6cc(-c7cc8c(s7)CCNC8=O)ccn6)cc5)CC4)CC3)cc21` (stereo not shown) [Compound I-406], in experiment [1], the Dmax is under 50% and the DC50 was over 100 nM. Further, in experiment [2], the Dmax was under 50% and the DC50 was over 100 nM.
`Cn1c(=O)n(C2CCC(=O)NC2=O)c2ccc(CCN3CCN(c4ccc(-c5cc(-c6cc7c([nH]6)C6(CC6)CNC7=O)ccn5)cn4)CC3)cc21` (stereo not shown) [Compound I-201]: in experiment [1], the Dmax is under 50% and the 50% degradation concentration (DC50) was over 100 nM. In experiment [2], the “MK2 MSD SW 1353 24 h Dmax %” value is on record as “—” and the “MK2 MSD SW1353 degradation 24 h GMean External Abs DC50” value is given as “—”.
